PubChem BioAssay (NCI)
Values joined by “and” are separate entries in the source; they are usually repeats but may differ in a detail not shown here. Equal values may be shown once.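 Five compound concentrations were applied to cells in 96-well plates for 48 hours; endpoints were derived by simple linear interpolation of the resulting dose-response curve. GI50 marks 50% less growth. At the TGI there is no net growth.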

Experiments:
Assay in all cases: DTP human tumour cell line panel, 48 h
[1] = test system: A498 renal
[2] = test system: HOP-62 NSCLC
[3] = test system: MALME-3M melanoma
[4] = test system: MOLT-4 leukemia
[5] = test system: OVCAR-8 ovarian
[6] = test system: SNB-78 CNS
[7] = test system: TK-10 renal
[8] = test system: UO-31 renal
[9] = test system: KM12 colon
[10] = test system: SR leukemia

Compound | TGI [1] | TGI [2] | TGI [3] | TGI [4] [µM] | TGI [5] | TGI [6] [µM] | TGI [7] | TGI [8] [µM] | GI50 [1] | GI50 [2] | GI50 [9] | TGI [9] | GI50 [3] | GI50 [4] | GI50 [5] | GI50 [10] | TGI [10] | GI50 [7] | GI50 [8]
NNC(=O)N/N=C1/C(=O)N(c2ccc(Cl)c(Cl)c2)C(=O)C(=O)C1c1nc2ccccc2o1 (centres undefined) | > 100 µM | > 100 µM | > 100 µM | > 100 | > 100 µM | > 100 | > 100 µM | > 100 |  |  |  |  |  |  |  |  |  |  | 
CN1CCN(Cc2ccc(NC(=O)c3[nH]ncc3Nc3cc(OC4CCCC4)ncn3)cc2)CC1 | 19.4 µM | 13.2 µM | 5.43 µM | 8.66 | 26.9 µM |  | 23.7 µM | 11.2 | 6.37 µM | 3.7 µM | 2.18 µM | 6.19 µM | 2.05 µM | 2.16 µM | 4.95 µM | 1.03 µM | 6.1 µM | 11 µM | 1.4 µM
COC(=O)[C@]1(C)CC[C@]2(C)CC[C@]3(C)C(=CC(=O)[C@@H]4[C@@]5(C)CCC(=O)NC(C)(C)[C@@H]5CC[C@]43C)[C@@H]2C1 | 46.4 µM | > 100 µM | 38 µM | 31.6 | > 100 µM |  | > 100 µM | 33.3 | 21.4 µM | 29 µM | 16.4 µM | 38 µM | 18.3 µM | 10.5 µM | 29.2 µM | 15.5 µM | 50.5 µM | 40.2 µM | 16.9 µM
C=CC(=O)Nc1cccc(Nc2nc(Nc3ccc(N4CCN(C(C)=O)CC4)cc3OC)ncc2C(F)(F)F)c1 | 6.01 µM and 2.94 µM | > 10 µM and 25.9 µM | > 10 µM and 16.4 µM | > 58.5 | > 10 µM and 98.2 µM |  | 2.16 µM and 4.03 µM | > 68.6 | 2 µM and 0.802 µM | 6.52 µM and 6.2 µM | 7.48 µM and 5.58 µM | > 10 µM and 38.6 µM | 8.88 µM and 3.09 µM | 5.47 µM and 4.04 µM | 4.05 µM and 3.51 µM | 3.37 µM and 1.45 µM | 8.32 µM and > 45.3 µM | 0.32 µM and 0.441 µM | 2.05 µM and 1.76 µM
COc1cc[nH]c1/C=C1\C(=O)Nc2ccc([N+](=O)[O-])c(N3CC[C@@H](O)C3)c21 | 0.815 µM | 1.88 µM | 1.97 µM | 2.4 | 3.46 µM |  | 1.61 µM | 3.44 | 0.182 µM | 0.181 µM | 0.101 µM | 2.22 µM | 0.921 µM | 0.142 µM | 0.278 µM | 0.0536 µM | 0.185 µM | 0.512 µM | 0.267 µM
COC(=O)C(C(=O)C(=O)Nc1ccc(N)cc1[N+](=O)[O-])c1nc2ccc(Cl)cc2[nH]c1=O (centres undefined) | > 100 µM | > 100 µM | > 100 µM | > 100 | > 100 µM | > 100 | > 100 µM | > 100 |  |  |  | > 100 µM |  |  |  |  |  |  | 
O=[N+]([O-])c1ccc2nc(=S)[nH]n2c1 | > 100 µM | > 100 µM | > 100 µM | > 100 | > 100 µM |  | > 100 µM | > 100 |  |  |  | > 100 µM |  |  |  |  | > 100 µM |  | 
CCCCCC/C(CC(=O)CCC(=O)NCCc1ccccc1)=N\NC(=O)c1ccc2ccccc2c1O |  | > 100 µM | > 100 µM | 56.5 | > 100 µM | > 100 | > 100 µM | > 100 |  |  |  | > 100 µM |  |  |  |  |  |  | 
CCN1C(=O)N(CC)C2C1NN=c1s/c(=C\c3cnc(C)n3C)c(=O)n12 (centres undefined) | 5.43 µM | > 100 µM | > 100 µM | > 100 | > 100 µM |  | > 100 µM | > 100 | 0.946 µM | 2.59 µM | 1.22 µM | > 100 µM | 2.96 µM | 3.24 µM | 3.41 µM | 0.346 µM | 19.1 µM | 7.19 µM | 5 µM
CCC(=O)Oc1ccc(/C=N/NC(N)=S)nc1 | > 100 µM | 82.3 µM | > 100 µM | > 100 | > 100 µM |  | > 100 µM | 22.8 | 23.3 µM | 5.53 µM | 4.69 µM | > 100 µM | 6.86 µM | 3.3 µM | 3.51 µM | 1.34 µM | > 100 µM | 49 µM | 3.48 µM
Cn1c(=O)c2[nH]cnc2n(C)c1=O.[CH2-]C(Cc1cccc2cc(C(=O)O)c(=O)oc12)OC.[Hg+2].[OH-] (centres undefined) | 33 µM | 41.8 µM | 20.4 µM | 40.5 | 32 µM |  | 33.4 µM | 29.8 | 18.7 µM | 19.2 µM | 17.3 µM | 32 µM | 8.67 µM | 8.81 µM | 18 µM | 20.8 µM | 53.8 µM | 19.3 µM | 16.1 µM
COc1ccc2c(c1)NC(=O)CN2c1nc(C)nc2ccccc12 |  | > 100 µM | > 100 µM | > 100 | > 100 µM |  | > 100 µM | > 100 | 0.000376 µM | 0.00069 µM | 0.000353 µM | > 100 µM |  | 0.000605 µM | 0.000524 µM |  | > 100 µM |  | 
CC1CCC2[C@@H](C)COC3O[C@]4(C)CCC1C32OO4 (some centres undefined) | > 100 µM | > 100 µM | > 100 µM |  | > 100 µM | > 100 | > 100 µM | > 100 |  |  |  | > 100 µM |  |  |  |  |  |  | 
CCC12C=CCN3CCC4(C(=C(C(=O)OC)C1)Nc1ccccc14)[C@H]32 (some centres undefined) | 79.4 µM |  | > 100 µM | 93 |  |  | > 100 µM | > 100 |  |  |  | > 100 µM |  |  |  |  | 34.8 µM |  | 
COc1cc(OC)c2c(c1Cl)O[C@]1(C2=O)C(OCc2ccccc2)=CC(=O)C[C@H]1C | 5.58 µM | 62.2 µM | 55.8 µM | 8.79 | 29.4 µM |  | 63.2 µM | 61.2 | 0.413 µM | 1.36 µM | 0.596 µM | > 100 µM | 12 µM | 0.826 µM | 1.02 µM | 0.331 µM | 10.8 µM | 4.34 µM | 2.51 µM
CC(=O)OC1(C#N)CC2OC1C1NC21 (centres undefined) | > 100 µM | > 100 µM | > 100 µM | > 100 | > 100 µM | > 100 | > 100 µM | > 100 |  |  |  |  |  |  |  |  |  |  | 
